Experimental findings from US20260000698A1 (priority 2022, published 2026) are described below.

Data set [1] relates to A549/ACE2/TMPRSS2 cells. As to the kind of experiment: in vitro. As to the method: (§1) Percentage of infected cells was determined by dividing the number of infected cells by the total number of cells per well. The percentage of infected cells and total number of cells for each treatment was plotted into GraphPad prism (GraphPad Software; San Diego, CA, USA) to perform a non-linear regression analysis, generate infectious dose-response curves and to calculate EC50 and CC50 values.
(§2) Viability assays for the non-infected A549/ACE2/TMPRSS2 cells were performed using the 3-(4,5-dimethylthiazol-2-yl)-5-(3-carboxymethoxyphenyl)-2-(4-sulfophenyl)-2H-tetrazolium (MTS)-based tetrazolium reduction CellTiter 96 Aqueous Non-Radioactive cell proliferation assay (Promega G5430; Madison, WI) as described. Assays were conducted using parallel plates to those used in the immunofluorescence assay. Experimental details (cell line, number of cells seeded and incubation time) corresponded to those used in the immunofluorescence assay above. The data obtained were used to calculate the CC50 value using GraphPad Prism software.

Data set [2] has as its system SARS-CoV-2 isolate USA-WA1/2020. As to conditions: A549 AT cells.
Data set [3] shares this test system. Kind of data set: microbe, parasite or virus in culture. To be noted: for EC50: Severe acute respiratory syndrome coronavirus 2, A549-ACE2, 48 h; for inhibition at 10 µM: Severe acute respiratory syndrome coronavirus 2, A549-ACE2, read-out: % inhibition at 10 μM (EC50).
The target in data set [4] is SARS-CoV-2 Nsp14 MTase (Severe acute respiratory syndrome coronavirus 2, UniProt P0DTD1). As to the kind of experiment: biochemical. Type of data set: biochemical.
Data set [5] is described as follows: in vitro. As to conditions: human. As to the method:
as §1, §2

The mark [6] stands for this setting: LC-MS/MS detection of SAH, read-out: MTase IC50.

Read-outs that look alike come from different tables or passages of the source.

In the case of `CC(=O)O[C@@H]1[C@H](OC(C)=O)[C@@H](CNS(=O)(=O)c2ccc3ccccc3c2)O[C@H]1c1ccc2c(N)ncnn12` [Compound 11, (2S,3S,4R,5R)-2-(4-Aminopyrrolo[2,1-f][1,2,4]triazin-7-yl)-5-((naphthalene-2-sulfonamido)methyl)tetrahydrofuran-3,4-diyl diacetate], in data set [1] (A549/ACE2/TMPRSS2 cells), the CC50 worked out at 63 µM. In data set [1] (human, 100 μM), the “cytotoxicity” value was “more toxic than 10”. The “antiviral activity” value in data set [2] is on record as “less active”. In addition, the EC50 in data set [3] was determined as 4.3 µM.

As for `Nc1ncnn2c([C@@H]3O[C@H](CNS(=O)(=O)c4cccc5ccccc45)[C@@H](O)[C@H]3O)ccc12` [Compound 12, N-(((2R,3S,4R,5S)-5-(4-Aminopyrrolo[2,1-f][1,2,4]triazin-7-yl)-3,4-dihydroxytetrahydrofuran-2-yl)methyl)naphthalene-1-sulfonamide], the half-maximal inhibitory concentration (IC50) in data set [4] (setting [6]) came out at 7.3 µM. The CC50 in data set [5] is greater than 100 µM. The concentration giving a half-maximal response (EC50) in data set [3] stood at 3 µM.

On to `Nc1ncnn2c([C@@H]3O[C@H](CNS(=O)(=O)c4cc5ccccc5s4)[C@@H](O)[C@H]3O)ccc12` [Compound 13, N-(((2R,3S,4R,5S)-5-(4-aminopyrrolo[2,1-f][1,2,4]triazin-7-yl)-3,4-dihydroxytetrahydrofuran-2-yl)methyl)benzo[b]thiophene-2-sulfonamide], for which the IC50 in data set [4] came to 0.042 µM. The compound also yielded a CC50 in data set [5] greater than 100 µM. Moreover, the 50% effective concentration (EC50) in data set [3] is 1.6 µM.

`Nc1ncnn2c([C@@H]3O[C@H](CNS(=O)(=O)c4csc5ccccc45)[C@@H](O)[C@H]3O)ccc12` [Compound 14, N-(((2R,3S,4R,5S)-5-(4-Aminopyrrolo[2,1-f][1,2,4]triazin-7-yl)-3,4-dihydroxytetrahydrofuran-2-yl)methyl)benzo[b]thiophene-3-sulfonamide]: the 50% inhibitory concentration (IC50) in data set [4] (setting [6]) is 2 µM. In addition, the CC50 in data set [5] was greater than 100 µM. This compound also showed an EC50 in data set [3] of 13 µM.

`Nc1ncnn2c([C@@H]3O[C@H](CNS(=O)(=O)c4ccc5ccccc5c4)[C@@H](O)[C@H]3O)cc(I)c12` [Compound 49, N-(((2R,3S,4R,5S)-5-(4-Amino-5-iodopyrrolo[2,1-f][1,2,4]triazin-7-yl)-3,4-dihydroxytetrahydrofuran-2-yl)methyl)naphthalene-2-sulfonamide]: the IC50 in data set [4] (setting [6]) was determined as 0.046 µM. Also, the CC50 in data set [5] was determined as 28 µM. The compound further showed a concentration giving a half-maximal response (EC50) in data set [3] of 11 µM.

In data set [4], `Nc1ncnc2c1ncn2[C@@H]1C[C@H](CNS(=O)(=O)c2ccc3ccccc3c2)[C@@H](O)[C@H]1O` [Compound A1, N-(((1R,2R,3S,4R)-4-(6-Amino-9H-purin-9-yl)-2,3-dihydroxycyclopentyl)methyl)naphthalene-2-sulfonamide] returned an IC50 of 0.78 µM. In addition, the CC50 in data set [5] was greater than 100 µM. For the same compound, the inhibition at 10 µM in data set [3] was 33%.

Consider `CCN(C[C@H]1C[C@@H](n2cnc3c(N)ncnc32)[C@H](O)[C@@H]1O)S(=O)(=O)c1ccc2ccccc2c1` [Compound A2, N-(((1R,2R,3S,4R)-4-(6-Amino-9H-purin-9-yl)-2,3-dihydroxycyclopentyl)methyl)-N-ethylnaphthalene-2-sulfonamide], for which the 50% inhibitory concentration (IC50) in data set [4] (setting [6]) came out at 0.26 µM. The CC50 in data set [5] was greater than 100 µM. Besides, the inhibition at 10 µM in data set [3] was found to be 29%.

`Nc1ncnc2c1ncn2[C@@H]1C[C@H](CNS(=O)(=O)c2ccc3ccccc3c2)[C@H](O)[C@@H]1O` [Compound A3, N-(((1R,2S,3R,4R)-4-(6-Amino-9H-purin-9-yl)-2,3-dihydroxycyclopentyl)methyl)naphthalene-2-sulfonamide] gave an IC50 in data set [4] of 103 µM. In data set [5], this compound had a CC50 greater than 100 µM. Further, in data set [3], the inhibition at 10 µM came out at 41%.

Take `CCN(C[C@H]1C[C@@H](n2cnc3c(N)ncnc32)[C@@H](O)[C@H]1O)S(=O)(=O)c1ccc2ccccc2c1` [Compound A4, N-(((1R,2S,3R,4R)-4-(6-Amino-9H-purin-9-yl)-2,3-dihydroxycyclopentyl)methyl)-N-ethylnaphthalene-2-sulfonamide]: in data set [4] (setting [6]), the half-maximal inhibitory concentration (IC50) stood at 5.1 µM. This compound also came in with a CC50 in data set [5] greater than 100 µM. Also, the inhibition at 10 µM in data set [3] was 34%.

Broadly, the EC50 is the concentration giving half of the maximal effect. A word on the IC50: it is the concentration at which inhibition is half-maximal. The term inhibition denotes the change of the read-out against control, counted positive when it falls.
